Source: US20190352341A1, “MODIFIED PEPTIDES AND THEIR USE FOR TREATING SYSTEMIC LUPUS ERYTHEMATOSUS” (IMMUPHARMA FRANCE SA, priority 2018, published 2019)
Values joined by “and” are separate entries in the source; they are usually repeats but may differ in a detail not shown here. Equal entries are not always repeated. Numbered stars: 1 amine (or outer) side, 2 acyl side, 3 side chain; on linkers, the order of the positions; unused ones are H or OH. Square brackets hold non-standard residues; d marks the D form. Peptide text beside a SMILES is read from it. ξ: configuration not given here. X1 = CSCC[C@H](NC(=N)[C@H](Cc1c[nH]cn1)N[*:1])C(=O)[*:2]; pS = N[C@@H](COP(=O)(O)O)C(=O)O; Ile(3ξ) = CCC(C)[C@H](N)C(=O)O

Legend:
MRL/lpr mice = test: Survival analysis in MRL/lpr mice; format: in vivo, mouse; settings: female MRL/lpr mice, peptide intravenously from five weeks of age; NaCl control 25 weeks
Description: It has been determined that this mouse strain carries a mutation in the fas gene. Also, the MRL/lpr is a useful model to study behavioural and cognitive deficits found in autoimmune diseases and the efficacy of immunosuppressive agents [Monneaux et al., 2003, Eur. J. Immunol. 33, 287-296].
Five-week-old female MRL/lpr mice received P140 or peptide P140(MO) intravenously as described (Monneaux et al., 2003, Eur. J. Immunol. 33, 287-296). All experimental protocols were carried out with the approval of the local Institutional Animal Care and Use Committee (CREMEAS). As control, mice were injected with NaCl.
Twenty mice were used for each peptide or NaCl.
Statistical tests were performed using GraphPad Prism version 5.0. The two-way ANOVA test was used to analyze statistical significance of proteinuria differences between control and peptide-treated groups of mice. Survival of control and P140 analogue-treated female MRL/lpr mice was analyzed by the Kaplan-Meier method, and the significance of differences was determined by the log-rank test. For the other variables, statistical significance was assessed using the Student's t-test. p values less than 0.05 were considered significant.

Balb/c mice = test: 31-day HDM-induced asthma model, BAL cells; format: in vivo, mouse; settings: for B cells / DCs / Eosinophils / Macrophages / Neutrophils / T cells / Total cells: BAL, HDM-sensitized, P140 i.v. 4 mg/kg day 25, individual mice
Description: The aim of this study was to evaluate the effect of the P140 phosphopeptide administered systemically (intravenously) in a 31-day model of HDM-induced asthma in mice. The P140 phosphopeptide was solubilized in sterile water (Braun) and 10× concentrate sterile saline was added to adjust osmolarity to 300 mosm. Osmolarity was controlled with a micro osmometer (Löser, type 15) and validated (303 mosm). The P140 phosphopeptide was used in vivo at the dose of 4 mg/kg by intravenous (i.v.) routes. Control animals received equivalent volumes (2 ml/kg) of saline (Table 8).
Nine-week-old male Balb/c mice were sensitized by intranasal (i.n.) administration of HDM extract (Stallergenes): 1 μg in 25 μl saline on days 0, 1, 2, 3, 4, and 10 μg on days 14 and 21. Mice were challenged by i.n. administration of HDM (1 μg) and/or saline on days 28, 29 and 30. Mice were treated by i.v. injection (2 ml/kg) of P140 or solvent on day 25 (see FIG. 14).
BAL was performed after airway responsiveness measurement twenty-four hours after HDM challenge as described (Daubeuf et al. 2012). Mice were anaesthetized IP (Ketamine 150 mg/kg—Xylasine 10 mg/kg). Blood was collected from the heart, centrifuged at 10,000 g for 2 min and serum stored at −20° C.
After semi-excision of the trachea, a plastic cannula was inserted, and airspace washed with 0.5 ml of 0.9% NaCl injected with a 1 ml syringe. This procedure was performed 10 times. The initial concentrated supernatant of the 2 first lavages (volume=2×0.5 ml administered, approximately 0.5 ml recovered) was collected for cytokine measurements. The remaining BAL fluid was centrifuged (300 g for 5 min, 4° C.), and cell pellets pooled. The cell pellet was suspended in 500 μl of 0.9% NaCl and used for total cell counts evaluated on a Muse® Cell Analyser (Millipore). Differential cell counts were assessed by flow cytometry (LSRII® cytometer, BD Bioscience). BAL cells were added with FCblock (0.5 μl, 553142, BD Bioscience) in a black microplate, incubated for 20 min at room temperature. Then, marker antibodies were added: CD11c-FITC (557400, BD bioscience), Gr-1-PeeFluor610 (61-5931-82, eBioscience), F4/80-PE (12-4801-82, eBioscience), CD11b-APC-Cy7 (557657, BD bioscience), CD45-AlexaFluor700 (103128, BioLegend), CD3-BV605 (564009, BD bioscience), CD19-PE-Cy7 (552854, BD bioscience). Antibodies were incubated with BAL cells for 30 min at room temperature before DAPI (5 μl, BD bioscience) addition, and flow cytometry was performed immediately.
All mice were sensitized to HDM on days 0, 1, 2, 3, 4, 14, 21, and challenged either with saline ([…]) or HDM (challenge with allergen). Results are presented as means±SEM. Differences between groups were tested for statistical significance using Student's t test for inflammatory cells and a two-way ANOVA followed by Bonferroni post-test for airway responses.

[1] = system: peripheral T cells from lupus patients; settings: cited from earlier work
[2] = saline-challenged (chronic asthma)
[3] = chronic asthma (saline-challenged), P140 4 mg/kg i.v. day 25
[4] = chronic asthma (saline-challenged), P140 4 mg/kg i.v. day 25, non-significant

CCC(C)[C@H](NC(=O)[C@H](Cc1ccccc1)NC(=O)[C@H](C)NC(=O)[C@H](Cc1ccc(O)cc1)NC(=O)CNC(=O)[C@H](CCCNC(=N)N)NC(=O)[C@@H]1CCCN1C(=O)[C@H](CCCCN)NC(=O)CNC(=O)[C@H](COP(=O)(O)O)NC(=O)[C@H](CCCNC(=N)N)NC(=O)[C@H](CCCCN)NC(=O)[C@H](CO)NC(=O)[C@H](Cc1ccc(O)cc1)NC(=O)[C@@H](NC(=O)[C@H](CCSC)NC(=N)[C@H](Cc1c[nH]cn1)NC(=O)[C@@H](NC(=O)[C@@H](N)CCCNC(=N)N)C(C)CC)C(C)C)C(=O)N[C@@H](CCC(=O)O)C(=O)N[C@@H](Cc1ccc(O)cc1)C(=O)O (stereo partly shown) [Compound P140] (H-R[Ile(3ξ)][X1]VYSKR[pS]GKPRGYAF[Ile(3ξ)]EY-OH)
Median survival of mice (MRL/lpr mice): 29 weeks | B cells (Balb/c mice; HDM-challenged (HDM + P140)): 59 092 and 102 246 and 42 085 and 25 443 and 116 814 and 115 000 and 53 947 and 170 980 | DCs (Balb/c mice; HDM-challenged (HDM + P140)): 1 034 and 2 238 and 1 793 and 242 and 586 and 1 350 and 733 and 1 928 | Eosinophils (Balb/c mice; HDM-challenged (HDM + P140)): 955 824 and 1 404 942 and 636 065 and 342 046 and 1 283 190 and 1 036 803 and 538 210 and 1 010 666 | Macrophages (Balb/c mice; HDM-challenged (HDM + P140)): 58 705 and 118 771 and 314 326 and 125 002 and 34 364 and 38 709 and 29 121 and 73 491 | Neutrophils (Balb/c mice; HDM-challenged (HDM + P140)): 606 700 and 510 027 and 500 004 and 147 616 and 371 317 and 487 119 and 284 503 and 24 426 | T cells (Balb/c mice; HDM-challenged (HDM + P140)): 400 329 and 735 865 and 383 074 and 243 813 and 469 834 and 502 985 and 334 784 and 1 056 303 | Total cells (Balb/c mice; HDM-challenged (HDM + P140)): 2140000 and 2992000 and 2190000 and 1010000 and 2310000 and 2220000 and 1270000 and 2410000 | B cells (Balb/c mice; [2]): 2 297 and 44 668 and 22 879 and 11 101 and 7 660 | DCs (Balb/c mice; [2]): 0 and 484 and 461 and 319 and 160 | Eosinophils (Balb/c mice; [2]): 124 514 and 450 346 and 448 074 and 205 568 and 239 527 | Macrophages (Balb/c mice; [2]): 130 734 and 267 885 and 360 987 and 177 815 and 73 725 | Neutrophils (Balb/c mice; [2]): 2 584 and 35 734 and 23 986 and 34 836 and 2 394 | T cells (Balb/c mice; [2]): 57 711 and 323 623 and 294 011 and 208 439 and 86 810 | Total cells (Balb/c mice; [2]): 448000 and 1390000 and 1510000 and 815000 and 484000 | Inflammatory cell recruitment in BAL (Balb/c mice; HDM-challenged mice, vs solvent group): no effect | Increase of number of macrophages in BAL vs solvent group (Balb/c mice; [3]): 4.5 fold | Number of neutrophils in BAL, change vs solvent group (Balb/c mice; [3]): −71% | Number of B cells in BAL, change vs solvent group (Balb/c mice; [4]): −40% | Number of eosinophils in BAL, change vs solvent group (Balb/c mice; [4]): −25% | Proliferation of peripheral T cells from lupus patients ([1]; ex vivo (Monneaux et al., 2005)): does not induce proliferation | Secretion of regulatory cytokine IL-10 in cell cultures ([1]; ex vivo, T cells from lupus patients (Monneaux et al., 2005)): high levels
